The results in this text go back to patent US20120035247A1, “RNA Interference Mediated Inhibition of Signal Transducer and Activator of Transcription 6 (STAT6) Gene Expression Using Short Interfering Nucleic Acid (siNA)” (Merck Sharp & Dohme Corp., priority 2009, published 2012).

Type in all cases: cell-based
Data set [1] has as its system STAT6 mRNA. The experiment in a line: STAT6 siNA screen in mouse NIH 3T3 cells, STAT6 mRNA by quantitative RT-PCR (Taqman). The conditions noted are these: mouse NIH3T3 cells, 10 nM siNA, 24 hrs, normalized to GAPDH and non-targeting control, n = 2. The essentials: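 NIH 3T3 cells, 5000/well, transfected after 24 h with siNA (10 nM final) via RNAiMax and harvested 24 h later. STAT6 mRNA quantified by TaqMan RT-qPCR with GAPDH; knock-down by comparative Ct (2^−ΔΔCt) against non-targeting control siNA.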
Background: Real-time PCR tracks product formation cycle by cycle.

Data set [2] relates to STAT6 mRNA. Briefly: STAT6 siNA screen and dose response in human A549 cells, STAT6 mRNA by quantitative RT-PCR (Taqman). The conditions noted are these: for % KD STAT6 mRNA 10 nM / IC50: Table 4, human A549 cells; for % KD STAT6 mRNA 10 nM / IC50 / % KD STAT6: mean ± S.D.; for % KD STAT6 10 nM: Table 5, A549 cells, three experiments, mean ± standard deviation; for % KD STAT6: human A549 cells, 10 nM siNA, 24 hrs, normalized to GAPDH and non-targeting control, n = 3. The essentials: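 A549 cells were transfected with siNA–RNAiMax complexes at a final 10 nM siNA and incubated 24 h without a medium change. STAT6 mRNA was measured by TaqMan qRT-PCR on cell lysates. Knock-down was calculated by the comparative Ct (ΔΔCt) method against the non-targeting control siNA, with relative expression taken as 2^−ΔΔCt.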

Data set [3] deals with human STAT4 mRNA transcript. Briefly: STAT4 specificity screen in human A549 cells, STAT4 mRNA by quantitative RT-PCR. Particulars: three experiments, mean ± standard deviation. On the procedure:
A549 (human; ATCC cat# CCL-185): Cells were cultured at 37° C. in the presence of 5% CO2 and grown in Ham's F12K medium with 2 mM L-glutamine adjusted to contain 1.5 g/L sodium bicarbonate and supplemented with fetal bovine serum at a final concentration of 10%, 100 μg/mL of streptomycin, and 100 U/mL penicillin.
A series of probes and primers were used to detect the various mRNA transcripts of the genes of 13-Actin (human cell line only), and of STATE and GAPDH in mouse and human cell lines. All Taqman probes and primers for the experiments here-in described were supplied as pre-validated sets by Applied Biosystems, Inc. (see Table 2).
The assays were performed on an ABI 7900 instrument, according to the manufacturer's instructions. A TaqMan Gene Expression Master Mix (provided in the Cells-to-CTT™, Applied Biosystems, Cat #4399002) was used. The PCR reactions were carried out at 50° C. for 2 min, 95° C. for 20 min followed by 40 cycles at 95° C. for 15 secs and 60° C. for 1 min.
The expression level of the gene of interest and % knock-down was calculated using Comparative Ct method:
ΔΔCt=ΔCt(Target siNA)−ΔCt(NTC)
Relative expression level=2^−ΔΔCt
The non-targeting control siNA was, unless otherwise indicated, chosen as the value against which to calculate the % knock-down, because it is the most relevant control.
The siNAs from Table 4 were tested in human A549 cell line at a lower concentration (1 nM versus the original screening concentration of 10 nM) to determine the effect of the STATE siRNAs on the mRNA transcript of human STAT4.

[invAb] = inverted abasic unit; m = 2'-O-methyl; r = 2'-OH (RNA); f = 2'-fluoro

Turning to “30008-DC: STAT6 siNA duplex; sense SEQ ID NO: 80, antisense SEQ ID NO: 81; target CUGCUCUGCUCAGAUGUGA, site 2549 (sense CUGCUCUGCUCAGAUGUGATT; antisense UCACAUCUGAGCAGAGCAGUU; sense: DNA at AGT, 2'-fluoro at CU, [invAb] at 5' end, 3' end, backbone not given here; antisense: sugars from the 5' end rrrfmfffmmmfmmmmfmmmm, backbone not given here) [STAT6 siNA duplex; target CUGCUCUGCUCAGAUGUGA, site 2549]”, the “% KD STAT6” value in data set [1] is 77.9 ± 7.5%. In data set [2], the “% KD STAT6 mRNA 10 nM” value was 72.6 ± 4.5%, the half-maximal inhibitory concentration (IC50) was determined as 21.6 ± 12.4 pM, the “% KD STAT6 10 nM” value is on record as 72.6 ± 4.5% and the “% KD STAT6” value stood at 72.6 ± 4.5%. Moreover, the “% KD STAT4 1 nM” value in data set [3] was 16.4 ± 17%.

Regarding “29997-DC: STAT6 siNA duplex; sense SEQ ID NO: 58, antisense SEQ ID NO: 59; target CUACCAUGGUGCCUUCUUA, site 2262 (sense CUACCAUGGUGCCUUCUUATT; antisense UAAGAAGGCACCAUGGUAGUU; sense: DNA at AGT, 2'-fluoro at CU, [invAb] at 5' end, 3' end, backbone not given here; antisense: sugars from the 5' end rrrmmmmmfmffmfmmfmmmm, backbone not given here) [STAT6 siNA duplex; target CUACCAUGGUGCCUUCUUA, site 2262]”, the “% KD STAT6” value in data set [1] is reported as 28.7 ± 6.1%. Moreover, in data set [2], the “% KD STAT6 mRNA 10 nM” value is given as 68.1 ± 6.2%, the IC50 came out at 18.1 ± 8.3 pM, the “% KD STAT6 10 nM” value worked out at 68.1 ± 6.2% and the “% KD STAT6” value came to 68.1 ± 6.2%. In data set [3], the “% KD STAT4 1 nM” value was determined as 2.6 ± 25%.

As for “29990-DC: STAT6 siNA duplex; sense SEQ ID NO: 44, antisense SEQ ID NO: 45; target GUGAAAGCCUGGUGGACAU, site 954 (sense GUGAAAGCCUGGUGGACAUTT; antisense AUGUCCACCAGGCUUUCACUU; sense: DNA at AGT, 2'-fluoro at CU, [invAb] at 5' end, 3' end, backbone not given here; antisense: sugars from the 5' end rrrfffmffmmmfffffmfmm, backbone not given here) [STAT6 siNA duplex; target GUGAAAGCCUGGUGGACAU, site 954]”, the “% KD STAT6” value in data set [1] turned out to be 41.6 ± 7.4%. In addition, in data set [2], the “% KD STAT6 mRNA 10 nM” value turned out to be 71.7 ± 1.8%, the concentration for half-maximal inhibition (IC50) was 23 ± 8.7 pM, the “% KD STAT6 10 nM” value was 71.7 ± 1.8% and the “% KD STAT6” value is 71.7 ± 1.8%. Also, the “% KD STAT4 1 nM” value in data set [3] was −2.1 ± 25.7%.

The IC50 is the midpoint of a concentration-inhibition curve.
